Assay results: patent US7807841B2, “Spiro-containing compounds and compositions as modulators of steroid hormone nuclear receptors” (IRM LLC, priority 2005, dated 2010)
pIC50: −log10 of the molar value.

What was measured:
[1] = target: T1, Glucocorticoid Receptor (GR) (Homo sapiens, UniProt P04150); assay: Functional assay of glucocorticoid receptor antagonism (Gal4-GR-LBD luciferase reporter, COS-7 cells); assay type: cell-based; conditions: antagonism of dexamethasone (10 nM)-induced GR activity
T1 construct: expressed in transfected cells; host or cells: COS-7 cells (ATCC)
T1 sequence (P04150 541-778 isoform P04150-3): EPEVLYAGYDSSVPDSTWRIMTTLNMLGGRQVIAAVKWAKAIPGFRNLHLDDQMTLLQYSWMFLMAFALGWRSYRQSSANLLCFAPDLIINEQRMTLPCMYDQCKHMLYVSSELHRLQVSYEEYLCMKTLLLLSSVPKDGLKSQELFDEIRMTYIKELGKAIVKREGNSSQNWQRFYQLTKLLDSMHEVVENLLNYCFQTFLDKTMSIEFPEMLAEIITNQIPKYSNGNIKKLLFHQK
Experimental: The GR antagonist activity of the compounds is determined in a mammalian two hybrid reporter system. The ligand binding domain of GR (GR-LBD, sequence encoding amino acid 541-778) is fused to the DNA binding domain of the yeast Gal4 gene. The GR gene is cloned from a human lung cDNA library with PCR.
The assay is performed in 384 well plates: COS-7 cells (ATCC) are transfected with expression vectors for Gal-4-GR-LBD and a luciferase reporter vector containing Gal4 binding sequence (pG5-Luc). Cells are plated in 384 well plates immediately after transfection (approximately 8000 cells/well in 50 μl medium). The medium is supplemented with 3% charcoal-dextran treated fetal bovine serum (Hyclone). Twenty four hours after transfection, compounds prepared in DMSO are transferred to the cells. The cells are then stimulated with 10 nM final concentration of dexamethasone (Sigma) and incubated at 37° C. for another 24 hours before the luciferase activity is assayed with 20 μl of Bright-Glo (Promega) using a luminometer (CLIPR). The expression of luciferase is used as an indicator of dexamethasone-induced GR trans-activation. Each compound is tested in duplicates with a 12-concentration titration. IC50 values (defined as the concentration of test compound required to antagonize 50% of dexamethasone-induced GR activity) are determined from the dose-response curve.

[2] = target: T2, Progesterone Receptor (PR) (Homo sapiens, UniProt P06401); assay: Functional assay of progesterone receptor antagonism (progesterone-induced alkaline phosphatase activity in T-47D cells); assay type: cell-based; conditions: antagonism of progesterone (3 nM)-induced PR activity, read-out: PR-T47D IC50
T2 sequence (P06401 679-933 limits assumed): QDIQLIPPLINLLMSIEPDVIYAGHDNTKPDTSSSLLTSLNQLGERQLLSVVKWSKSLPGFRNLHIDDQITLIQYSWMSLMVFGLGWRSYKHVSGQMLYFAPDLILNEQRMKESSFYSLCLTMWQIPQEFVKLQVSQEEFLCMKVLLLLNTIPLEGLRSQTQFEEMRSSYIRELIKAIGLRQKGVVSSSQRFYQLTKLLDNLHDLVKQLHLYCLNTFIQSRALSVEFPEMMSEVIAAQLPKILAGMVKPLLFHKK
Experimental: The PR antagonist activity of the compounds is determined by progesterone-induced alkaline phosphatase activity in the T-47D cell line (ATCC). In the T-47D breast cancer cells, progesterone specifically induces de novo synthesis of a membrane-associated alkaline phosphatase enzyme in a time and dose-dependent manner (Di Lorenzo et al., Cancer Research, 51: 4470-4475 (1991)). The alkaline phosphatase enzymatic activity can be measured with a chemiluminescent substrate, such as CSPD® (Applied Biosystems).
The assay is performed in 384 well plates. Briefly, T-47D cells are plated in 384 well plates at a density of approximately 2.5×10^4 cells/well in 50 μl medium supplemented with 10% fetal bovine serum. Twenty four hours later, the medium is aspirated. New medium that is free of phenol red and serum is added to the cells. Compounds prepared in DMSO are transferred to the cells. The cells are then stimulated with 3 nM final concentration of progesterone (Sigma) and incubated at 37° C. for another 24 hours before the alkaline phosphatase is assayed with 25 μl of CSPD® (Applied Biosystems) using a luminometer (CLIPR). The expression of alkaline phosphatase is used as an indicator of progesterone-induced PR trans-activation. Each compound is tested in duplicates with a 12-concentration titration. IC50 values (defined as the concentration of test compound required to antagonize 50% of progesterone-induced PR activity) are determined from the dose-response curve.

| Structure (SMILES) | pIC50 [1] | pIC50 [2] |
| --- | --- | --- |
| CC(=O)N1CC2(OC13CCCCC3)c1ccccc1C=Cc1ccccc12 [SOXS-6] | < 5.00 | 6.00 to 7.00 |
| COc1ccc(C23CCC(=O)N2CC2(O3)c3ccccc3C=Cc3ccccc32)cc1 (centres unmarked) [FRS-5] | < 5.00 | < 5.00 |
| CC(=O)N1CC2(OC1(C)C)c1ccccc1C=Cc1ccccc12 [SOXS-3] | 5.00 to 6.00 | 5.00 to 6.00 |
| CC12CCCC(=O)N1CC1(O2)c2ccccc2C=Cc2ccccc21 (centres unmarked) [FRS-4] | < 5.00 | 5.00 to 6.00 |
| O=C1CCC2(c3ccccc3)OC3(CN12)c1ccccc1C=Cc1ccccc13 (centres unmarked) [FRS-2] | < 5.00 | < 5.00 |
| O=C1CCCC2(C(F)(F)F)OC3(CN12)c1ccccc1C=Cc1ccccc13 (centres unmarked) [FRS-11] | 5.00 to 6.00 | < 5.00 |
| CC12CCC(=O)N1CC1(O2)c2ccccc2CCc2ccccc21 (centres unmarked) [FRS-13] | < 5.00 | < 5.00 |
| Oc1ccc(C2=NCC3(O2)c2ccccc2C=Cc2ccccc23)cc1 [OXS-1] | < 5.00 | < 5.00 |
| CC12CCC(=O)N1CC1(O2)c2ccccc2C=Cc2ccccc21 (centres unmarked) [FRS-1] | < 5.00 | < 5.00 |
| O=C1CCC2(c3ccc(F)cc3)OC3(CN12)c1ccccc1C=Cc1ccccc13 (centres unmarked) [FRS-3] | < 5.00 | < 5.00 |
| CC12CCC(=O)N1CC1(O2)c2ccccc2C=Cc2ccccc21 (single isomer, unassigned) [FRS-1 (Chiral Synthesis)] | 5.00 to 6.00 | < 5.00 |
| CCCC12CCC(=O)N1CC1(O2)c2ccccc2C=Cc2ccccc21 (centres unmarked) [FRS-9] | 5.00 to 6.00 | 5.00 to 6.00 |
| CC12CCC(=O)N1CC1(O2)c2ccccc2CCc2ccccc21 (single isomer, unassigned) [FRS-13 (Chiral Synthesis)] | < 5.00 | < 5.00 |
| O=C1CCC2(c3cccs3)OC3(CN12)c1ccccc1C=Cc1ccccc13 (centres unmarked) [FRS-8] | 5.00 to 6.00 | 5.00 to 6.00 |
| CC1(C)OC2(CN1S(C)(=O)=O)c1ccccc1C=Cc1ccccc12 [SOXS-4] | < 5.00 | 6.00 to 7.00 |
| O=C1CCC2(C3CC3)OC3(CN12)c1ccccc1C=Cc1ccccc13 (centres unmarked) [FRS-10] | 5.00 to 6.00 | < 5.00 |
| CC12CCCCC(=O)N1CC1(O2)c2ccccc2C=Cc2ccccc21 (centres unmarked) [FRS-6] | < 5.00 | < 5.00 |
| CC1(C)OC2(CN1C(=O)Nc1ccc(F)cc1F)c1ccccc1C=Cc1ccccc12 [SOXS-1] | < 5.00 | 5.00 to 6.00 |
| CC12CCCC(=O)N1CC1(O2)c2ccccc2CCc2ccccc21 (centres unmarked) [FRS-14] | < 5.00 | 5.00 to 6.00 |
